Among the test systems are T47D; SKOV3; HT29; LOX.
Holding throughout (assay): Microculture tetrazolium assay
Assay type in all cases: cell-based

The next assay deals with SKVLB. The note with it: for VLB/OV3: IC50 ratio SKVLB/SKOV3; for IC50: SKVLB.
Where [1] appears, read: Homo sapiens, SK-OV-3, SKOV3, read-out: IC50.
Setting [2] is: Homo sapiens, HT-29, HT29, read-out: IC50.

Where “and” joins values, the source holds several entries; their conditions need not be identical. Identical values can stand only once. Counter-ions that a name gives are not always drawn. Like-named read-outs stand apart in the source and are kept apart here.

This is an account of results in patent US5593970A, “Heterocyclic anthracycline analogs” (priority 1994, dated 1997).

In general, IC50 refers to the concentration at which inhibition is half-maximal.

On to “1S,3R-Methyl(1-[2',3',6'-trideoxy-3'-trifluoroacetamido-4'-hydroxy-1,5-dihydro-L-lyxohexopyranose-2-yl)-6,11-dioxo-3,4,5,12-tetrahydroanthraceno[2,3- c]pyran-3-yl)ketone [BCH-2156]”, for which the IC50 in the assay with T47D (read-out: IC50) came out at 2710 nM; with SKOV3 (SKOV3, read-out: IC50), 3410 nM; in the assay with HT29 (HT29, read-out: IC50), 1190 nM; with SKVLB (read-out: IC50), 5.36 µM; in the assay with LOX (read-out: IC50) it was 375 nM. Also, the VLB/OV3 with SKVLB is recorded as 1.57.
As for `CC(=O)C1CC2=C(C(=O)c3cc4ccccc4c(O)c3C2=O)C(O[C@H]2C[C@H](NC(=O)C(F)(F)F)[C@H](OC(=O)c3ccc([N+](=O)[O-])cc3)[C@H](C)O2)O1` (mixture of isomers) [BCH-1122, (1S',1R,3S) and (1'S,1S,3R)-methyl (6-hydroxy-1-(2',3',6'-trideoxy-3'-trifluoroacetamido-4'-O-p-nitrobenzoyl-L-lyxohexopyranose)-6-hydroxy-5,12-dioxo-3,4,5,12-tetra-hydroanthraceno[2,3-C]pyran-3-yl) ketone], the IC50 was 6790 nM with T47D (Homo sapiens, read-out: IC50); 4270 nM with SKOV3 (setting [1]); over 100000 nM with HT29 (setting [2]); 14.7 µM in the assay with SKVLB (read-out: IC50); 2140 nM in the assay with LOX (read-out: IC50). For the same compound, the VLB/OV3 in the assay on SKVLB is recorded as 3.44.
`CC(=O)C1Cc2c(O)c3c(c(O)c2C(O[C@H]2C[C@H](NC(=O)C(F)(F)F)[C@H](O)[C@H](C)O2)O1)C(=O)c1ccccc1C3=O` (mixture of isomers) [BCH-1131, (1'S,1S,3R) and (1'S,1R,3S)-Methyl-[5,12-dihydroxy-1-(2',3',6'-trideoxy-3'-trifluoroacetamido-4'-hydroxy-L-lyxohexopyranose)-6,11-dioxo-3,4,6,11,tetrahydroanthraceno-(2,3-C)pyran-3-yl]ketone]: the IC50 came to 9480 nM in the assay with T47D (Homo sapiens, read-out: IC50); 4580 nM in the assay on SKOV3 (setting [1]); 6930 nM in the assay with HT29 (setting [2]); 11.2 µM with SKVLB (read-out: IC50); 4830 nM in the assay with LOX (read-out: IC50). In the assay on SKVLB, the VLB/OV3 is given as 2.45.
Regarding `COC(=O)[C@@H](N)COC1OC(C(C)=O)CC2=C1C(=O)c1cc3ccccc3c(O)c1C2=O` (mixture of isomers) [BCH-1657, (1S,2'S,3R) and (1R, 2'S,3S)-Methyl-{6-hydroxyl-1[O-serinemethyl ester]-5,12-dioxo-3,4,5,12-tetrahydroanthraceno-[2,3-c]pyran-3-yl}ketone hydrochloride salt], the IC50 in the assay on T47D (Homo sapiens, read-out: IC50) came out at 3110 nM; in the assay on SKOV3 (setting [1]), 573 nM; in the assay with HT29 (setting [2]), 2590 nM; in the assay on SKVLB (read-out: IC50), 4.25 µM; in the assay on LOX (read-out: IC50), 2410 nM. Besides, the VLB/OV3 in the assay with SKVLB is listed as 7.42.
Regarding `C[C@@H]1O[C@@H](O[C@H]2O[C@H](C(C)(F)F)CC3=C2C(=O)c2cc4ccccc4c(O)c2C3=O)C[C@H](O)[C@@H]1O` (mixture of isomers) [BCH-1662, (1'S,1S,3S) and (1'S,1R, 3R)-5,12-dioxo-3-(1,1-difluoroethyl)-6-hydroxy-1-(2',6'-dideoxy-L-lyxohexopyranose)-3,4,5,12-tetrahydroanthraceno-[2,3-c]-pyran], the IC50 in the assay with T47D (Homo sapiens, read-out: IC50) is 59700 nM; in the assay with SKOV3 (setting [1]), 86600 nM; with HT29 (setting [2]), 79600 nM; with SKVLB (read-out: IC50) it was 89.9 µM; with LOX (read-out: IC50) it was 38100 nM. For the same compound, the VLB/OV3 in the assay with SKVLB is on record as 1.04.
Consider `C[C@@H]1O[C@@H](O[C@@H]2O[C@@H](C(C)(F)F)CC3=C2C(=O)c2cc4ccccc4c(O)c2C3=O)C[C@H](O)[C@@H]1O` (mixture of isomers) [BCH-1663, (1'S,1S,3S) and (1'S,1R, 3R)-5,12-dioxo-3-(1,1-difluoroethyl)-6-hydroxy-1-(2',6'-dideoxy-L-lyxohexopyranose)-3,4,5,12-tetrahydroanthraceno-[2,3-c]-pyran], for which the IC50 in the assay on T47D (Homo sapiens, read-out: IC50) turned out to be 47900 nM; with SKOV3 (setting [1]) it was 27900 nM; in the assay on HT29 (setting [2]), 31300 nM; in the assay on SKVLB (read-out: IC50) it was 32.4 µM; with LOX (read-out: IC50) it was 31200 nM. Moreover, the VLB/OV3 with SKVLB is 1.16.
For the compound `COCC1Cc2c(O)c3c(c(O)c2C(O[C@H]2C[C@H](N)[C@H](O)[C@H](C)O2)O1)C(=O)c1ccccc1C3=O` (mixture of isomers) [BCH-1992, (1'S,1S,3R) and (1'S,1R,3S)-5,12-dihydroxy-3-methoxymethyl-1-(2',3',6'-trideoxy-3'-amino-L-lyxohexopyranose)-1,2,3,4-tetrahydro-(2-oxygen)naphthacene-6,11-dione hydrochloride], the IC50 worked out at 807 nM in the assay on T47D (Homo sapiens, read-out: IC50); 570 nM with SKOV3 (setting [1]); 183 nM with HT29 (Homo sapiens, HT-29, HT29); 2.74 µM in the assay on SKVLB (read-out: IC50); 666 nM in the assay on LOX (read-out: IC50). Further, in the assay on SKVLB, the VLB/OV3 was 4.81.
Consider `C[C@@H]1O[C@@H](O[C@H]2O[C@H](COc3ccccc3)CC3=C2C(=O)c2cc4ccccc4c(O)c2C3=O)C[C@H](NC(=O)C(F)(F)F)[C@@H]1O` (mixture of isomers) [BCH-2048, (1'S,1R,3S) and (1'S,1S,3R)-5,12-dioxo-6-hydroxy-3-phenyloxymethyl-1-(2',3',6'-trideoxy-3'-trifluoroacetamido-L-lyxohexopyranose)-3,4,5,12-tetrahydroanthraceno-[2,3-c]-pyran], for which the half-inhibitory concentration (IC50) stood at 5720 nM in the assay on T47D (Homo sapiens, read-out: IC50); 4360 nM with SKOV3 (setting [1]); 6380 nM with HT29 (setting [2]); 10.3 µM in the assay on SKVLB (read-out: IC50); 1770 nM in the assay with LOX (read-out: IC50). Also, the VLB/OV3 in the assay on SKVLB is 2.36.
As for `C[C@@H]1O[C@@H](OC2OC(C#N)Cc3c(O)c4c(c(O)c32)C(=O)c2ccccc2C4=O)C[C@H](NC(=O)C(F)(F)F)[C@@H]1O` (mixture of isomers) [BCH-2055, (1'S,1R,3S) and (1'S,1S,3R)(5,12-Dihydroxy-1-(2',3',6'-trideoxy-3'-trifluoroacetamido-4'-hydroxy-L-lyxohexopyranose)-6,11-dioxo-3,4,5,12-tetrahydroanthraceno-[2,3-c]pyran-3-yl)nitrile], the IC50 in the assay on T47D (Homo sapiens) was found to be 3510 nM; in the assay with SKOV3 (setting [1]), 898 nM; with HT29 (setting [2]) it was 471 nM; in the assay on SKVLB (read-out: IC50), 2.56 µM; in the assay with LOX (read-out: IC50) it was 1130 nM. The VLB/OV3 in the assay with SKVLB was found to be 2.85.
`C[C@@H]1O[C@@H](OC2OC(C#N)Cc3c(O)c4c(c(O)c32)C(=O)c2ccccc2C4=O)C[C@H](N)[C@@H]1O` (mixture of isomers) [BCH-2056, (1'S,1R,3S) and (1'S,1S,3R)(5,12-Dihydroxy-1-(2',3',6'-trideoxy-3'-amino-4'-hydroxy-L-lyxohexopyranose)-6,11-dioxo-3,4,5,12-tetrahydroanthraceno-[2,3-c]pyran-3-yl)nitrile]: the IC50 in the assay with T47D (Homo sapiens, read-out: IC50) came out at 271 nM; with SKOV3 (setting [1]), 171 nM; in the assay on HT29 (setting [2]), 83.2 nM; in the assay with SKVLB (read-out: IC50) it was 0.598 µM; in the assay on LOX (read-out: IC50), 170 nM. In addition, the VLB/OV3 in the assay with SKVLB came out at 3.50.
On to `CC(=O)[C@@H]1CC2=C(C(=O)c3cc4ccccc4c(O)c3C2=O)[C@@H](O[C@H]2C[C@H](N)[C@H](O)[C@H](C)O2)O1` [BCH-1128], for which the IC50 in the assay on T47D (Homo sapiens, read-out: IC50) was 1310 nM; with T47D (read-out: IC50), 1910 nM; in the assay with SKOV3 (setting [1]) it was 874 nM; in the assay on SKOV3 (SKOV3, read-out: IC50), 1200 nM; in the assay with SKVLB (read-out: IC50) it was 1.4 µM and 2.2 µM; in the assay with LOX (read-out: IC50), 850 nM and 493 nM. In addition, the VLB/OV3 in the assay with SKVLB was 1.60 and 1.83.
Consider `CC(=O)[C@@H]1Cc2c(O)c3c(c(O)c2[C@@H](O[C@H]2C[C@H](N)[C@H](O)[C@H](C)O2)O1)C(=O)c1ccccc1C3=O` [BCH-1194, (1'S,1R,3S)-Methyl-[5,12-dihydroxy-1-(2',3',6'-trideoxy-3'-amino-4'-hydroxy-L-lyxohexopyranose)-6,11-dioxo-3,4,6,11-tetrahydroanthraceno-(2,3-C)pyran-3-yl]ketone hydrochloride], for which the IC50 came out at 43.9 nM with T47D (Homo sapiens, read-out: IC50); 5.6 nM in the assay on SKOV3 (setting [1]); 1.46 µM in the assay with SKVLB (read-out: IC50); 62.3 nM in the assay on LOX (read-out: IC50). Further, in the assay on SKVLB, the VLB/OV3 was determined as 260.71.
Regarding `CC(=O)[C@H]1Cc2c(O)c3c(c(O)c2[C@H](O[C@H]2C[C@H](N)[C@H](O)[C@H](C)O2)O1)C(=O)c1ccccc1C3=O` [BCH-1195, (1'S,1S,3R)-Methyl-[5,12-dihydroxy-1-(2',3',6'-trideoxy-3'-amino-4'-hydroxy-L-lyxohexopyranose)-6,11,dioxo-3,4,6,11-tetrahydroanthraceno-(2,3-C)pyran-3-yl]ketone hydrochloride], the IC50 came to 1410 nM with T47D (Homo sapiens, read-out: IC50); 672 nM in the assay on SKOV3 (setting [1]); 3.35 µM with SKVLB (read-out: IC50); 741 nM with LOX (read-out: IC50). In the assay on SKVLB, the VLB/OV3 was 4.99.
In the same order, the values of `CC[C@@H]1CC2=C(C(=O)c3cc4ccccc4c(O)c3C2=O)[C@@H](O[C@H]2C[C@H](NC(=O)C(F)(F)F)[C@H](O)[C@H](C)O2)O1` [BCH-1606, (1'S,1R,3R)-5,12-dioxo-3-ethyl-6-hydroxy-1-(2',3',6'-trideoxy-3'-trifluoroacetamido-4'-hydroxy-L-lyxohexopyranose)-3,4,5,12-tetrahydroanthraceno[2,3-c]pyran] are 1330 nM, 1130 nM, 3.26 µM, 891 nM and 2.88.
`CC[C@H]1CC2=C(C(=O)c3cc4ccccc4c(O)c3C2=O)[C@H](O[C@H]2C[C@H](N)[C@H](O)[C@H](C)O2)O1` [BCH-1610, (1'S,1S,3S)-5,12-dioxo-3-ethyl-6-hydroxy-1-(2',3',6'-trideoxy-3'-amino-4'-hydroxy-L-lyxohexopyranose)-3,4,5,12-tetrahydroanthraceno[2,3-c]pyran hydrochloride]: the IC50 with T47D (Homo sapiens) came out at 1360 nM; in the assay with SKOV3 (Homo sapiens, SK-OV-3, SKOV3) it was 839 nM; with SKVLB it was 2.77 µM; in the assay with LOX, 845 nM. Further, the VLB/OV3 in the assay with SKVLB is listed as 3.30.
